Here are results for 16 compounds from ChEMBL document CHEMBL4177596, “Flavonoids and their derivatives with β-amyloid aggregation inhibitory activity from the leaves and twigs of Pithecellobium clypearia Benth” (Bioorg Med Chem Lett, 2017).

For experiment [1], the target named is Amyloid-beta precursor protein (Homo sapiens) (UniProt P05067). Briefly: Inhibition of HFIP-pretreated amyloid beta (1 to 42) (unknown origin) self-induced aggregation at 20 uM incubated for 24 hrs under dark condition by thioflavin-T based fluorometric assay relative to control.
Chain of Amyloid-beta precursor protein (Homo sapiens) (P05067 whole entry): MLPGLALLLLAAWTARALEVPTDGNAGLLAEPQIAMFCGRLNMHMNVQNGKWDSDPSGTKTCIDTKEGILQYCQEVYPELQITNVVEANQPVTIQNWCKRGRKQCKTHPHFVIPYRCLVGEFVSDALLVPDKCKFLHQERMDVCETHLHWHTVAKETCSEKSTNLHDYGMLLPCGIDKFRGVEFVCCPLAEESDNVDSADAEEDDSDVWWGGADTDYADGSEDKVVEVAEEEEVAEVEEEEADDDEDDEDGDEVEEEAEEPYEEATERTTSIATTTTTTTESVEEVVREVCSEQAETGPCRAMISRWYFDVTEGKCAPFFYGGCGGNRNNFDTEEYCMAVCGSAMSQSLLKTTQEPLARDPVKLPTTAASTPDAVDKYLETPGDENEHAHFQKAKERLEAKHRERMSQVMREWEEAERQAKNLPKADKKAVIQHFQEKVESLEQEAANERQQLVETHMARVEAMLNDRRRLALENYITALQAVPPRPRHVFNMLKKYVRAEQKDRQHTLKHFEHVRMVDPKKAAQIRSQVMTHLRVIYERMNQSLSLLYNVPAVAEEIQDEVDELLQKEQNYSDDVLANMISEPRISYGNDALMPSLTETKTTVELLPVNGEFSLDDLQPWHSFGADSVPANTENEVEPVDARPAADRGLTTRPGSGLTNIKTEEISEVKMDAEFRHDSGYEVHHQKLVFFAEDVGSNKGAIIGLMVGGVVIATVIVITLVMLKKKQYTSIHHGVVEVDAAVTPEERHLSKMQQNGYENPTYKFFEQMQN
Experiment [2] deals with SH-SY5Y. Briefly: Neuroprotective activity against H2O2-induced cell death in human SH-SY5Y cells assessed as increase in cell viability at 100 uM pretreated for 12 hrs followed by H2O2 challenge measured after 3 hrs by MTT assay. Format: functional, cell-based. (Tetrazolium assays rely on reduction of a dye to a coloured formazan, in cell work by metabolically active cells.)

Experiment [3] relates to SH-SY5Y. Briefly: Neuroprotective activity against H2O2-induced morphological changes in human SH-SY5Y cells assessed as reduction in appearance of apoptotic bodies at 100 uM by phase contrast microscopic analysis. The format is functional, cell-based.
The subject of experiment [4] is SH-SY5Y. Briefly: Neuroprotective activity against H2O2-induced morphological changes in human SH-SY5Y cells assessed as reduction in cell shrinkage at 100 uM by phase contrast microscopic analysis. Format: functional, cell-based.

The structures appear in SMILES notation. Activity calls are given as the source filed them. The calls are words filed in the database; no cut-off is given here.

A word on the inhibition: it is how much of the control response was suppressed.

Consider `COc1cc(O)cc2oc(-c3ccc(O)cc3)cc(=O)c12`, for which the inhibition result in experiment [1] is “Active”.

Turning to `O=C(Oc1cc(O)c2c(c1)O[C@H](c1cc(O)c(O)c(O)c1)[C@@H](O)C2)c1cc(O)c(O)c(O)c1`, the outcome with SH-SY5Y [2] was Active. The inhibition entry in experiment [1] is “Active”.

For `O=C(Oc1cc(O)c2c(c1)O[C@H](c1ccc(O)c(O)c1)[C@@H](O)C2)c1cc(O)c(O)c(O)c1`, the result in the experiment on SH-SY5Y [2] was Active. The inhibition result in experiment [1] was “Active”.

On to `C[C@H]1O[C@H](Oc2c(-c3ccc(O)c(O)c3)oc3cc(O)cc(O)c3c2=O)[C@@H](O)[C@@H](O)[C@@H]1O`, for which the inhibition in experiment [1] turned out to be 70.7%.

Regarding `O=c1c(O)c(-c2ccc(O)c(O)c2)oc2cc(O)cc(O)c12`, the outcome in the experiment on SH-SY5Y [2] was Active. Besides, the inhibition in experiment [1] is 88.4%.

`O=C(O[C@@H]1Cc2c(O)cc(O)cc2O[C@@H]1c1cc(O)c(O)c(O)c1)c1cc(O)c(O)c(O)c1`: the inhibition in experiment [1] was 86.1%.

As for `O=C1c2ccc(O)c(O)c2O[C@H](c2ccc(O)c(O)c2)[C@H]1O`, the outcome in the experiment on SH-SY5Y [3], in the experiment with SH-SY5Y [2] and in the experiment with SH-SY5Y [4] was Active. For the same compound, the inhibition in experiment [1] turned out to be 87.7%.

On to `O=C(Oc1cc(O)c2c(c1)O[C@@H](c1cc(O)c(O)c(O)c1)CC2)c1cc(O)c(O)c(O)c1`, for which the outcome with SH-SY5Y [2] was Active. Further, the inhibition entry in experiment [1] was “Active”.

Take `Oc1cc([C@@H]2CCc3c(O)cccc3O2)cc(O)c1O`: the inhibition in experiment [1] was 59.6%.

Turning to `O=c1cc(-c2ccc(O)c(O)c2)oc2cc(O)cc(O)c12`, the outcome in the experiment on SH-SY5Y [2] was Active. Besides, the inhibition in experiment [1] was found to be 86.5%.

Regarding `COc1cc(OC)c2c(c1)O[C@H](c1cc(O)c(O)c(OC)c1)[C@@H](O)C2`, the inhibition entry in experiment [1] is “Active”.

Consider `COc1cc(-c2cc(=O)c3c(OC)cc(O)cc3o2)ccc1O`, for which the inhibition result in experiment [1] was “Active”.

For the compound `C[C@@H]1Oc2cccc(O)c2C(=O)[C@@H]1O`, in experiment [1], the inhibition result is “Active”.

In the case of `O=C(Oc1cc(O)c2c(c1)O[C@H](c1cc(O)c(OC(=O)c3cc(O)c(O)c(O)c3)c(O)c1)[C@@H](O)C2)c1cc(O)c(O)c(O)c1`, the result with SH-SY5Y [2] was Active. Moreover, in experiment [1], the inhibition came to 56.3%.

For `C[C@@H]1O[C@@H](Oc2c(-c3cc(O)c(O)c(O)c3)oc3cc(O)cc(O)c3c2=O)[C@H](O)[C@H](O)[C@H]1O`, the inhibition in experiment [1] turned out to be 62.2%.

On to `COc1cc(O)c(C[C@H](O)Cc2ccc(O)c(OC)c2)c(OC)c1`, for which the inhibition entry in experiment [1] is “Active”.
